The values that follow come from ChEMBL document CHEMBL1127755, “Comparative molecular field analysis using GRID force-field and GOLPE variable selection methods in a study of inhibitors of glycogen phosphorylase b” (J Med Chem, 1994).

This assay deals with Glycogen phosphorylase, muscle form (Oryctolagus cuniculus) (UniProt P00489). Briefly: Tested for inhibition constant against glycogen phosphorylase b. The arrangement: scale not given here.
Chain of Glycogen phosphorylase, muscle form (Oryctolagus cuniculus) (P00489 whole entry, looked up): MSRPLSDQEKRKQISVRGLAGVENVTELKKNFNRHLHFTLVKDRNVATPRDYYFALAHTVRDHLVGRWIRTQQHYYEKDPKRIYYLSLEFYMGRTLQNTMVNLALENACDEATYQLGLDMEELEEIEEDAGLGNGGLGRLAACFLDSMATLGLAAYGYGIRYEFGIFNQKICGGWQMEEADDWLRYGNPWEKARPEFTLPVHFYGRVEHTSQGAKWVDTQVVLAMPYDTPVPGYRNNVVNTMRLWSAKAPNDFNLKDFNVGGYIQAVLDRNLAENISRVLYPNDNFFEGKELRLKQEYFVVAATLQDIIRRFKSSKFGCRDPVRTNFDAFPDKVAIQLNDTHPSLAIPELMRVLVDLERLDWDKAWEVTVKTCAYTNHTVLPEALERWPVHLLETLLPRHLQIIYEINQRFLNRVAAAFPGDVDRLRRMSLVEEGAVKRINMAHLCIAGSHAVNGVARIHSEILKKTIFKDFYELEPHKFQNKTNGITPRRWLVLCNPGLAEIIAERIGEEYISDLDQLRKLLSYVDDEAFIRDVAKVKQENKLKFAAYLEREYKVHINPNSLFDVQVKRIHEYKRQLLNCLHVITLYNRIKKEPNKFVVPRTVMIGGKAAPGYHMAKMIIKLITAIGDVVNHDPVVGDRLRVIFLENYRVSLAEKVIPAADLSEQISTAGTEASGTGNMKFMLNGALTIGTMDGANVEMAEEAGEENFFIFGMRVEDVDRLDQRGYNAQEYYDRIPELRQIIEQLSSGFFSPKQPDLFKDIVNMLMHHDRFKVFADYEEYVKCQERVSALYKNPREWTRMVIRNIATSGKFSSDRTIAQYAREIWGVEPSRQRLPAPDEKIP
Consider `OC[C@@H]1O[C@@](O)(CO)[C@@H](O)[C@@H](O)[C@@H]1O`, for which the Exp Inhib Constant was determined as 2.76. As to `NCC1OC(CO)C(O)C(O)C1O` (stereo in doubt; 14), the Exp Inhib Constant was found to be 3.54. With `CO[C@@H]1O[C@H](CO)[C@H](O)[C@H](O)[C@H]1O`, the Exp Inhib Constant stood at 3.21.

Regarding `OCCO[C@@H]1O[C@H](CO)[C@@H](O)[C@H](O)[C@H]1O`, the Exp Inhib Constant was determined as 3.23. In the case of `OCC1OC(CO)C(O)C(O)C1O` (stereo in doubt; 9) it was 0.41; in that of `NNC(=O)[C@@H]1O[C@H](CO)[C@@H](O)[C@H](O)[C@H]1O` (stereo in doubt; 35), -0.92; in that of `OCC1OC(F)C(F)C(O)C1O` (stereo not given), -1.61.

`[N-]=[N+]=NC[C@H]1O[C@H](CO)[C@@H](O)[C@H](O)[C@H]1O` displayed an Exp Inhib Constant of 3.11. In the case of `O=C(CCl)N[C@H]1O[C@H](CO)[C@@H](O)[C@H](O)[C@H]1O` it was -3.22.

As for `COC(=O)C1OC(CO)C(O)C(O)C1O` (stereo in doubt; 33), the Exp Inhib Constant was 0.92. In the case of `COC(=O)C1OC(CO)C(O)C(O)C1O` (stereo in doubt; 31) it was 3.19. In the case of `NC(=O)CS[C@H]1O[C@H](CO)[C@@H](O)[C@H](O)[C@H]1O` it was 3.05; in that of `OC[C@H]1O[C@@H](Oc2cc3ccccc3[nH]2)[C@H](O)[C@@H](O)[C@@H]1O`, 0.96; in that of `O[C@@H]1[C@@H](O)[C@@H](O)O[C@H](CS)[C@H]1O`, 0.69.

For `OC[C@H]1O[C@H](OCC2O[C@@H](O)[C@H](O)[C@@H](O)[C@@H]2O)[C@H](O)[C@@H](O)[C@H]1O` (stereo not given in full), the Exp Inhib Constant worked out at 2.79. With `[N-]=[N+]=NC[C@@]1(O)O[C@@H](CO)[C@@H](O)[C@H](O)[C@@H]1O`, the Exp Inhib Constant is 2.

`O=C(Nc1ccccc1)C1OC(CO)C(O)C(O)C1O` (stereo not given) yielded an Exp Inhib Constant of 2.53. As for `NC(=O)C1OC(CO)C(O)C(O)C1O` (stereo in doubt; 27), the figure is -0.82; as for `[N-]=[N+]=NC[C@@H]1O[C@H](CO)[C@@H](O)[C@H](O)[C@H]1O`, 2.72. In the case of `NC(=O)[C@H]1O[C@H](CO)[C@@H](O)[C@H](O)[C@H]1O` it was 3.6. In the case of `NCCC1OC(CO)C(O)C(O)C1O` (stereo not given), the Exp Inhib Constant turned out to be 1.5. As for `O=C(Nc1ccc(O)cc1)C1OC(CO)C(O)C(O)C1O` (stereo not given), the figure is 1.72; as for `NC(=O)[C@@H]1O[C@H](CO)[C@@H](O)[C@H](O)[C@H]1O`, -1.61; as for `N#CC[C@]1(O)O[C@H](CO)[C@@H](O)[C@H](O)[C@H]1O`, 2.03. As for `N#CC[C@@H]1O[C@H](CO)[C@@H](O)[C@H](O)[C@H]1O`, the Exp Inhib Constant was found to be 2.2.

Take `CS(=O)(=O)OC[C@]1(O)O[C@@H](CO)[C@@H](O)[C@H](O)[C@@H]1O`: the Exp Inhib Constant amounted to 1.31. In the case of `NNC(=O)[C@@H]1O[C@H](CO)[C@@H](O)[C@H](O)[C@H]1O` (stereo in doubt; 25) it was 1.1; in that of `OCc1ccccc1O[C@H]1O[C@H](CO)[C@@H](O)[C@H](O)[C@H]1O`, 2.15; in that of `NCC1OC(CO)C(O)C(O)C1O` (stereo in doubt; 15), 2.82. As for `OCC1OC(CO)C(O)C(O)C1O` (stereo in doubt; 10), the figure is 3.09.

`CS(=O)(=O)OCC1OC(CO)C(O)C(O)C1O` (stereo not given) showed an Exp Inhib Constant of 1.57. As to `CC1OC(CO)C(O)C(O)C1O` (stereo not given), the Exp Inhib Constant was determined as 3.97. As for `CO[C@H]1O[C@H](CO)[C@H](O)[C@H](O)[C@H]1O`, the figure is 2.49. As for `NC(=O)C1OC(CO)C(O)C(O)C1O` (stereo in doubt; 20), the figure is -0.99.

`OCC1OC(S)C(O)C(O)C1O` (stereo not given): the Exp Inhib Constant was 0.
